According to US10092595B2, “Compositions and methods for treating inflammatory arthritis” (priority 2009, dated 2018):
Entries after “also recorded” stand apart in the source; their conditions may differ. Square brackets hold non-standard residues; d marks the D form. Peptide text beside a SMILES is read from it. * marks the point of attachment. Nva = CCC[C@H](N)C(=O)O; Cbz = O=C(OCc1ccccc1)*; CH2F = FC*

Assays:
gp130 [1] = experiment: Western blot of gp130 expression in MH7A cells; format: cell-based; conditions: for effect of pre-incubation with inhibitor on As2O3-induced decrease in gp130: NH4Cl 2.5 mM, MG115 10 μM, Z-VAD-FMK 25 μM, As2O3 5 μM
Description: (§1) Western blot analysis was performed (Pang et al., Gastroenterology, 132:1088-103 (2007)). Cell lysis and protein collection was conducted according to standard protocols. Protein samples (typically 30 μg) were separated by sodium dodecyl sulfate-polyacrylamide gel electrophoresis (SDS-PAGE) in 12% resolving gel and electro-transferred to nitrocellulose membranes (400 mA for 2 hours). After blocking with tris-buffered saline-TWEEN (TBS-T) containing 5% non-fat milk at room temperature for 30 minutes, membranes were incubated with the primary antibody and TBS-T with 5% bovine serum albumin at 4° C. overnight. The membranes were then washed thrice with TBS-T, and incubated for 1 hour at room temperature with 1:2000 horseradish peroxidase-conjugated secondary antibodies (Amersham-Pharmacia Biotechnology, Piscataway, N.J., USA). Immunoreactive bands were detected with chemiluminescence using the SuperSignal West Pico Chemiluminescent Substrate (Pierce Chemical Co., Rockford, Ill., USA), and visualized on X-ray films. Densitometric quantification of band signals was performed using ImageJ 1.36b software (National Institutes of Health, USA). All experiments were performed in triplicates.

JNK = experiment: Western blot of JNK phosphorylation in MH7A cells; format: cell-based
Description: as §1

MH7A cells [2] = experiment: Annexin V apoptosis assay (flow cytometry); format: cell-based; conditions: As2O3 5 μM, representative assay
Description: For apoptosis assay, 1×10^6 cells were incubated in 10-cm plates overnight, before treatment with controls or reagents for 24 hours. Cells were then trypsinized, washed twice with ice-cold phosphate buffered saline (PBS), re-suspended in 500 μL of binding buffer, and incubated on ice for 10 minutes with FITC-conjugated annexin-V and propidium iodide (PI) (Immunotech; Fullerton, Calif., USA). Apoptotic cells (annexin-V-positive, PI-negative) were enumerated by flow cytometry in triplicates (Epics, Beckman Coulter, Fullerton, Calif., USA) after appropriate color compensation. Data analysis was performed by the WinMDI 2.8 software (The Scripps Research Institute, La Jolla, Calif., USA).

caspase 3 = experiment: Western blot of caspase 3 activation in MH7A cells; format: cell-based
Description: as §1

IL-6 receptor α = experiment: Western blot of IL-6 receptor α expression in MH7A cells; format: cell-based
Description: as §1

IL-6 gene = experiment: RT-PCR of IL-6 gene transcription in MH7A cells; format: cell-based
Description: (§2) Total RNA was prepared using TRIzol (Invitrogen). Reverse transcription PCR (RT-PCR) was performed (Cheung, et al., Cancer Lett., 246:122-8 (2007)). RNA was reverse transcribed with the Superscript™ III First-Strand Synthesis System (Invitrogen) according to the manufacturer's instructions. Reaction mixes contained 1.2 μL of cDNA, 18 μL of Platinum® PCR Supermix (Invitrogen) and 200 nM of each pair of primers.

GP130 gene = experiment: RT-PCR and Q-PCR of gp130 gene transcription in MH7A cells; format: cell-based
Description: as §2
Quantitative-RT-PCR (Q-PCR) for GP130 was performed with the Assays-on-Demand™ Gene Expression System (AssayID: Hs00174360_m1, PE Biosystems, Foster City, Calif., USA) according to the manufacturer's instructions. The reaction mix contained 2 μL of cDNA, 10 μL of TaqMan® Universal PCR Master Mix, 1 μL of Assay-on-Demand™ Gene Expression Assay Mix, and RNase-free water to a volume of 20 μL. Q-PCR was performed with the ABI Prism 7700 Sequence Detector (PE Biosystems). […] Real-time PCR amplification data were collected continuously and analyzed with the ABI Prism 7700 Sequence Detector. Relative gene expression to the control calibrator, and normalized to the internal control, was calculated by the ΔΔCT method (ABI user bulletin number 2, PE Biosystem) (Cheung, et al., Cancer Lett., 246:122-8 (2007)). […]

IL-6 receptor α gene = experiment: RT-PCR of IL-6 receptor α gene transcription in MH7A cells; format: cell-based; conditions: semi-quantitative RT-PCR
Description: as §2

gp130 [3] = experiment: Immunoprecipitation of gp130 and Western blot with anti-ubiquitin antibodies FK1 and FK2; format: cell-based; conditions: 100 μM As2O3, 0, 4 or 6 hours; FK2 positive, FK1 negative
Description: Immunoblot analysis was performed with gp130 ubiquitinylation. MH7A cells are incubated with 100 μM As2O3 for 0, 4 or 6 hours. Antibody to gp130 is used for immunoprecipitation (IP) of total cell lysates, followed by Western blot analysis with anti-ubiquitin antibodies FK1 and FK2. IP with non-immune rabbit serum (NIS) serves as control.
Immunoprecipitation was performed by standard procedures (Pang et al., Gastroenterology, 132:1088-103 (2007)). Cells were washed with ice-cold PBS supplemented with 1 mM sodium orthovanadate and Complete protease inhibitor cocktail (Complete; Roche Molecular Biochemicals), and lysed with buffer (50 mM Tris-HCl, pH: 7.5, 100 mM NaCl, 1% Triton X-100, 4 μg/mL aprotinin, 100 μM phenylmethylsulfonyl fluoride, 200 μM sodium orthovanadate, 2 μg/mL leupeptin, 1 mM ditheiothreitol, and 1× Complete) at 4° C. for 15 minutes. Lysates were collected and centrifuged. Proteins were assayed (Bio-Rad Protein Assay Kit, Philadelphia, Pa., USA), and adjusted to 1 μg/μL (typically 800 to 1000 μg). Immunoprecipitation was preformed by incubating protein samples with the appropriate antibodies (typically 4 μg) or control non-immune sera at 4° C. overnight with gentle shaking. […] The immunoprecipitates were then analyzed by Western blotting in triplicates

p53 = experiment: Western blot of p53 phosphorylation at serine 46 in MH7A cells; format: cell-based; conditions: 5 μM As2O3
MH7A cells [4] = experiment: Cell cycle analysis by PI staining and flow cytometry; format: cell-based; conditions: 5 μM As2O3, 24 hours
Description: Cell cycle analysis was performed as described (Pang et al., J. Pathol. 210:19-25, (2006)), Cells were trypsinized, washed twice with ice-cold PBS, re-suspended in 500 μL PBS, and stained with PI for 10 minutes on ice (DNA Prep™, Beckman Coulter). Cell cycle was determined by flow cytometry, and data analyzed by the WinMDI 2.8 software.

NFκB = experiment: Western blot of NFκB expression in MH7A cells; format: cell-based; conditions: dose (24 hours) and time (5 μM) dependence
Description: as §1

MH7A cells [5] = system: MH7A cells
Description: Cells were maintained in RPMI1640 (Invitrogen, Carlsbad, Calif., USA) supplemented with 10% heat inactivated fetal bovine serum (FBS; Invitrogen) in 5% CO2 at 37° C.
Cellular proliferation was assessed by an MTT assay (GE Healthcare, Piscataway, N.J., USA) (Cheung et al., Cancer Lett., 246:122-8 (2007)). Cells (2×10^4 cells/well in 96-well plates) were incubated overnight before treatment with controls or reagents for 2-6 days. The treated cells were then incubated with the MTT labeling solution (10 μL/well). After 4 hours of incubation, cells were lyzed, and formazan crystals solubilized overnight at 37° C. Formazean signal was detected at 570 nm (μ-Quant™ microplate spectrometer, Bio-Tek Instruments Inc., VT, USA). Data obtained were analyzed by the KC junior software (BLD Science, Garner, N.C., USA).

[6] = oral As2O3; cited from earlier work
[7] = oral As2O3; cited from earlier work; remark: listed apart in the source
[8] = RA patients; cited from earlier work

## CCC[C@@H](C=O)NC(=O)[C@H](CC(C)C)NC(=O)[C@H](CC(C)C)NC(=O)OCc1ccccc1 [MG115] (Cbz-Leu-Leu-[Nva]-aldehyde)
gp130 [1]
  effect of pre-incubation with inhibitor on As2O3-induced decrease in gp130: had no effect

## Cl.N [NH4Cl, ammonium chloride]
gp130 [1]
  effect of pre-incubation with inhibitor on As2O3-induced decrease in gp130: significantly prevented
JNK; SP600125 30 μM, NH4Cl 2.5 mM
  effect of inhibitor on As2O3-induced JNK phosphorylation/activation: almost totally abrogated

## COC(=O)C[C@H](NC(=O)[C@H](C)NC(=O)[C@@H](NC(=O)OCc1ccccc1)C(C)C)C(=O)CF [Z-VAD-FMK] (Cbz-Val-Ala-Asp(OMe)-CH2F)
gp130 [1]
  effect of pre-incubation with inhibitor on As2O3-induced decrease in gp130: had no effect

## Arsenic trioxide [As2O3]
MH7A cells [2]
  annexin-V positive, propidium iodide negative (apoptotic) cells: 38.2%
  annexin-V positive, propidium iodide positive (dead) cells: 5.76%
Caspase 3
  activation of caspase 3: dose and time dependent activation of caspase 3
gp130 [1]; Western blot
  gp130 protein level: dose and time dependent decrease of gp130
IL-6 receptor α
  IL-6 receptor α protein level: remaining unchanged
IL-6 gene
  IL-6 gene transcription: did not affect IL-6 gene transcription
GP130 gene; real-time quantitative PCR, 5 μM As2O3, 0-24 hours
  GP130 gene transcription: no effect on GP130 gene transcription
GP130 gene; semi-quantitative RT-PCR
  gp130 gene transcription: no effect on the transcription of both genes
IL-6 receptor α gene
  IL-6 receptor α gene transcription: no effect on the transcription of both genes
gp130 [3]
  gp130 ubiquitination: induced mono-ubiquitination of gp130; also recorded: gp130 is mono-ubiquitinated
JNK; 5 μM As2O3, 0-24 hours
  JNK phosphorylation: significant increases in JNK phosphorylation
p53
  p53 phosphorylation at serine 46: significantly increased p53 phosphorylation at serine 46
MH7A cells [4]
  cell cycle arrest: significant G2M arrest
NFκB
  level of NFκB: significantly decreased the level of NFκB
MH7A cells [5]; increasing concentrations, 24, 48 or 72 hours
  inhibition of growth of MH7A cells: dose and time dependent inhibition of growth
MH7A cells [5]; read-out: 50% inhibitory concentration, growth of MH7A cells, MTT assay, 24, 48 or 72 hours
  IC50: ~5 µM
[6]
  QT prolongation: minimal QT prolongation
[7]
  efficacy in relapsed acute promyelocytic leukemia: highly efficacious

## IL-6: recombinant human IL-6 (Peprotech)
MH7A cells [5]; 72 hours
  effect of exogenous IL-6 on proliferation of MH7A cells: did not increase the proliferation

## infliximab
[8]
  clinical effect in RA: significant improvement in joint inflammation and halts the progression of joint damage

## tocilizumab
[8]
  clinical effect in RA: significant control of symptoms
